Experimental data as given in patent US9131690B2, “Macrocyclic picolinamides as fungicides” (Dow AgroSciences LLC, priority 2012, dated 2015).
Read-outs that look alike come from different tables or passages of the source.

Experiments:
[1] = tested on: Puccinia triticina. Synonym: Puccinia recondite f. sp. tritici; experiment: Fungicidal activity: Wheat Brown Rust (PUCCRT), wheat plants variety Yuma; assay type: in vivo; design: key to PUCCRT 3DC Disease Control: A: 50-100; B: More than 0-Less than 50; C: Not Tested; D: No activity noticed in this bioassay; conditions: for PUCCRT 3DC Disease Control: 100 ppm; for pest or weed control at 100 ppm: Puccinia triticina
Experimental: Evaluation of Fungicidal Activity: Wheat Brown Rust (Puccinia triticina. Synonym: Puccinia recondite f. sp. tritici; Bayer Code PUCCRT) Wheat plants (variety Yuma) were grown from seed in a greenhouse in 50% mineral soil/50% soil-less Metro mix until the first leaf was fully emerged, with 7-10 seedlings per pot. These plants were inoculated with an aqueous spore suspension of Puccinia recondite f. sp. tritici either prior to or after fungicide treatments. After inoculation the plants were kept in 100% relative humidity overnight to permit spores to germinate and infect the leaf. The plants were then transferred to a greenhouse set at 24 C for disease to develop.

[2] = tested on: Mycosphaerella graminicola; Anamorph: Septoria tritici; experiment: Fungicidal activity: Leaf Blotch of Wheat (SEPTTR), wheat plants variety Yuma; assay type: in vivo; conditions: Zymoseptoria tritici
Experimental: Evaluation of Fungicidal Activity: Leaf Blotch of Wheat (Mycosphaerella graminicola; Anamorph: Septoria tritici; Bayer Code […]) Wheat plants (variety Yuma) were grown from seed in a greenhouse in 50% mineral soil/50% soil-less Metro mix until the first leaf was fully emerged, with 7-10 seedlings per pot. These plants were inoculated with an aqueous spore suspension of Septoria tritici either prior to or after fungicide treatments. After inoculation the plants were kept in 100% relative humidity (one day in a dark dew chamber followed by two to three days in a lighted dew chamber) to permit spores to germinate and infect the leaf. The plants were then transferred to a greenhouse at 20° C. for disease to develop.

[3] = 24 h, 1 Day Protectant, read-out: PUCCRT 1DP Disease Control
[4] = 24 h, 1 Day Protectant, read-out: SEPTTR 1DP Disease Control
[5] = 72 h, 3 Day Curative, read-out: SEPTTR 3DC Disease Control
[6] = 72 h, 3 Day Curative, read-out: PUCCRT 3DC Disease Control

| SMILES | PUCCRT 3DC Disease Control ([1]; 3 Day Curative) | pest or weed control at 100 ppm [1, 3] [%] | melting point [°C] | pest or weed control at 100 ppm [2, 4] [%] | pest or weed control at 100 ppm [2, 5] [%] | pest or weed control at 100 ppm [1, 6] [%] |
| --- | --- | --- | --- | --- | --- | --- |
| COc1ccnc(C(=O)N[C@H]2COC(=O)[C@H](CCOC(=O)c3ccc(-c4ccccc4)cc3)[C@@H](OC(=O)C(C)C)[C@H](C)OC2=O)c1O [Compound 40] | D | 50 to 100 | 178 to 179 | 50 to 100 | 0 to 50 | – |
| COc1ccnc(C(=O)N[C@H]2COC(=O)[C@H](Cc3cccc(C(F)(F)F)c3)[C@@H](OC(=O)C(C)C)[C@H](C)OC2=O)c1O [Compound 16] | – | 50 to 100 | 188 to 190 | 50 to 100 | 0 to 50 | 0 to 50 |
| COc1ccnc(C(=O)N[C@H]2COC(=O)[C@H](Cc3ccncc3)[C@@H](OC(=O)C(C)C)[C@H](C)OC2=O)c1O [Compound 5] | – | 50 to 100 | 151 to 156 | 50 to 100 | 50 to 100 | 50 to 100 |
| COc1ccnc(C(=O)N[C@H]2COC(=O)[C@H](CCn3cc(-c4ccccc4)nn3)[C@@H](OC(=O)C(C)C)[C@H](C)OC2=O)c1O [Compound 55] | – | 50 to 100 | 222 to 224 | 50 to 100 | 0 to 50 | 0 to 50 |
| COc1ccnc(C(=O)N[C@H]2COC(=O)[C@H](CC3CCCCC3)[C@@H](OC(=O)C(C)C)[C@H](C)OC2=O)c1O [Compound 61, (3S,6S,7R,8R)-8-(cyclohexylmethyl)-3-(3-hydroxy-4-methoxypicolinamido)-6-methyl-4,9-dioxo-1,5-dioxonan-7-yl isobutyrate] | – | 50 to 100 | 188 to 189 | 50 to 100 | 50 to 100 | 0 to 50 |
| COc1ccnc(C(=O)N[C@H]2COC(=O)[C@H](CCOC(=O)c3ccc4c(c3)OCO4)[C@@H](OC(=O)C(C)C)[C@H](C)OC2=O)c1O [Compound 39] | – | 50 to 100 | 159 to 161 | 50 to 100 | 0 to 50 | 0 to 50 |
| COc1ccnc(C(=O)N[C@H]2COC(=O)[C@H](Cc3cccc4ccccc34)[C@@H](OC(=O)C(C)C)[C@H](C)OC2=O)c1O [Compound 15] | – | 50 to 100 | 192 to 197 | 50 to 100 | 0 to 50 | 0 to 50 |
| COc1ccnc(C(=O)N[C@H]2COC(=O)[C@H](Cc3cccc(C(F)(F)F)c3)[C@@H](OC(=O)C(C)C)[C@H](C)OC2=O)c1OCOC(=O)C(C)C [Compound 24] | – | 50 to 100 | 100 to 103 | 50 to 100 | 0 to 50 | 50 to 100 |
| C=CC[C@H]1C(=O)OC[C@H](NC(=O)c2nccc(OC)c2O)C(=O)O[C@@H](C)[C@@H]1OC(=O)C(C)C [Compound 17] | – | 50 to 100 | 161 to 165 | 50 to 100 | 0 to 50 | 50 to 100 |
| CC[C@H]1C(=O)OC[C@H](NC(=O)c2nccc(OC)c2O)C(=O)O[C@@H](C)[C@@H]1OC(=O)C(C)C [Compound 53, (3S,6S,7R,8R)-8-ethyl-3-(3-hydroxy-4-methoxypicolinamido)-6-methyl-4,9-dioxo-1,5-dioxonan-7-yl isobutyrate] | D | 50 to 100 | 193 to 195 | 50 to 100 | 0 to 50 | – |
| CCCCCCC[C@H]1C(=O)OC[C@H](NC(=O)c2nccc(OC)c2O)C(=O)O[C@@H](C)[C@@H]1OC(=O)C(C)C [Compound 63, (3S,6S,7R,8R)-8-heptyl-3-(3-hydroxy-4-methoxypicolinamido)-6-methyl-4,9-dioxo-1,5-dioxonan-7-yl isobutyrate] | D | 50 to 100 | 131 to 134 | 50 to 100 | 0 to 50 | – |
| COc1ccnc(C(=O)N[C@H]2COC(=O)[C@H](CC(F)F)[C@@H](OC(=O)C(C)C)[C@H](C)OC2=O)c1O [Compound 52, (3S,6S,7R,8R)-8-(2,2-difluoroethyl)-3-(3-hydroxy-4-methoxypicolinamido)-6-methyl-4,9-dioxo-1,5-dioxonan-7-yl isobutyrate] | – | 50 to 100 | 195 to 196 | 50 to 100 | 0 to 50 | 0 to 50 |
| COc1ccnc(C(=O)N[C@H]2COC(=O)[C@H](Cc3ccc(C(F)(F)F)cc3)[C@@H](OC(=O)C(C)C)[C@H](C)OC2=O)c1O [Compound 6] | D | 50 to 100 | 222 to 226 | 50 to 100 | 0 to 50 | – |
| COc1ccnc(C(=O)N[C@H]2COC(=O)[C@H](CCc3ccccc3)[C@@H](OC(=O)C(C)C)[C@H](C)OC2=O)c1O [Compound 57, (3S,6S,7R,8R)-3-(3-hydroxy-4-methoxypicolinamido)-6-methyl-4,9-dioxo-8-phenethyl-1,5-dioxonan-7-yl isobutyrate] | – | 50 to 100 | 183 to 184 | 50 to 100 | 0 to 50 | 50 to 100 |
| COc1ccnc(C(=O)N[C@H]2COC(=O)[C@H](CCOC(=O)C3CC3)[C@@H](OC(=O)C(C)C)[C@H](C)OC2=O)c1OCOC(=O)C(C)C [Compound 26] | – | 50 to 100 | 68 to 69 | 0 to 50 | 0 to 50 | 50 to 100 |
| CCCC/C=C/C[C@H]1C(=O)OC[C@H](NC(=O)c2nccc(OC)c2O)C(=O)O[C@@H](C)[C@@H]1OC(=O)C(C)C [Compound 18] | D | 50 to 100 | 146 to 148 | 50 to 100 | 0 to 50 | – |
| COc1ccnc(C(=O)N[C@H]2COC(=O)[C@H](CCOC(=O)c3ccc(C(F)(F)F)cc3)[C@@H](OC(=O)C(C)C)[C@H](C)OC2=O)c1O [Compound 42] | D | 50 to 100 | 160 to 162 | 0 to 50 | 0 to 50 | – |
| COc1ccnc(C(=O)N[C@H]2COC(=O)[C@H](CSc3ccccn3)[C@@H](OC(=O)C(C)C)[C@H](C)OC2=O)c1O [Compound 65, (3S,6S,7R,8R)-3-(3-hydroxy-4-methoxypicolinamido)-6-methyl-4,9-dioxo-8-((pyridin-2-ylthio)methyl)-1,5-dioxonan-7-yl isobutyrate] | – | 50 to 100 | 148 to 150 | 50 to 100 | 0 to 50 | 0 to 50 |
| COc1ccnc(C(=O)N[C@H]2COC(=O)[C@H](CCOC(=O)c3ccc(C(F)(F)F)cc3)[C@@H](OC(=O)C(C)C)[C@H](C)OC2=O)c1OC(C)=O [Compound 68] | – | 0 to 50 | 199 to 200 | 0 to 50 | 0 to 50 | 0 to 50 |
